We go through 88 molecules from a melting point compilation (Tetko et al.; mined from patent text by program, amines drawn as free bases though some values may be those of a salt).

`O=C1c2ccccc2C(=O)N1CCCN1CCC(C(c2ccccc2)c2ccccc2)CC1` registered a melting point of 104 to 106 °C.
Regarding `CN(C)Cc1cc(CCCCCCCOc2ccc(C3=NCCO3)cc2)on1`, the melting point is 69.5 to 70 °C.
Regarding `COc1ccc(CC(=O)C=NN=P(c2ccccc2)(c2ccccc2)c2ccccc2)cc1`, the melting point fell in the range of 111 to 112 °C.
Take `CCCOc1cc2c(cc1-c1cc(-c3ccc(C(=O)O)cc3)ccc1-c1ccccc1)C(C)(C)CCC2(C)C`: the melting point came out at 234 °C.
With `C=CCONC(=O)c1nc(-c2ccc(Cl)c(OC)c2F)nc(N)c1C=C`, the melting point lay within 98 to 101 °C.
As for `Cc1cc(NC(=O)C(C)(O)COc2ccc(CC#N)cc2)ccc1[N+](=O)[O-]` (stereo not drawn), the melting point lay in the range of 143 to 145 °C.
With `CCOCCC(=Nc1ccc(Cl)cc1C(F)(F)F)n1ccnc1` the figure was 61 to 62 °C; with `Nc1ccc(S(=O)(=O)N2CCCC(c3ccc(Cl)cc3)=N2)cc1`, 205 to 206 °C.
`CCC(CC)Oc1cc(C)nc2c1CCC(=O)N2c1c(C)cc(C)cc1C` registered a melting point of 138 to 140 °C.
In turn, `CC[C@H](C)[C@H](NC(=O)OCc1ccccn1)C(=O)NC(Cc1ccccc1)C(O)C(O)C(Cc1ccccc1)NC(=O)[C@@H](NC(=O)OCc1ccccn1)[C@@H](C)CC` (stereo partly drawn) registered a melting point of 220 to 221 °C.
To `CC(C)c1c(OCCNC(=O)OC(C)(C)C)noc1-c1cccs1` belongs 94 to 95 °C; to `CN1CCc2cc(O)c(O)c(Sc3cccs3)c2CC1`, 189 to 191 °C.
The molecule `NC(=S)c1c(F)cccc1Cl` registered a melting point of 153 to 157 °C.
Consider `O=C1CCCCC1c1ccncc1` (stereo not drawn), for which the melting point is 99 to 101 °C.
The molecule `COC(=O)NCc1nc(-c2ccc3c(c2)Nc2ccccc2S3)cs1` showed a melting point of 151 to 153 °C.
With `COc1cc2c(cc1OC)C(C)(CCCCl)OCC2` (stereo not drawn), the melting point was 77 to 79 °C.
`CCOCC1N=NC(=S)N1C` (stereo not drawn) came in with a melting point of 137 to 138 °C.
`COC(=O)[C@H](Cc1ccc(N)cc1)NC(=O)OC(C)(C)C` had a melting point of 86 to 89 °C.
`COC(=O)CCn1cc(C)c(=O)[nH]c1=O`: the melting point was in the range of 112 to 119 °C.
For `OC1(c2cccs2)C(c2ccccc2Cl)SC2=NCCCCN21` (stereo not drawn), the melting point fell in the range of 120 to 122 °C.
To `CC(C)c1cc(Cl)cc(C(C)C)c1NC(=O)NS(=O)(=O)c1cc(C2(C)OCCO2)ccc1F` belongs 168 to 170 °C; to `O=C(O)C1OCC(O)C(O)C1O` (stereo not drawn), 194 to 196 °C; to `Nc1nc2c(Cc3cccnc3)c[nH]c2c(=O)[nH]1`, more than 300 °C.
To `COC(=O)Nc1cnc2ccc(Sc3ccccc3)cn12` belongs 211 to 215 °C; to `CC(C)(C)c1nc2cc(N3CCOCC3)c(N)cc2s1`, 158 to 159 °C; to `CCOc1nc(=O)n(C(=O)NCCCl)s1`, 82 °C.
To `N#Cc1c(Cl)nc2ccc(S(=O)(=O)Cl)cc2c1Cl` belongs 168 to 171 °C.
The molecule `COc1cc2c3c(c1)nc(SCc1ccncc1)n3CCC2` displayed a melting point of 99 to 101 °C.
`CN1C(=O)Cc2cc(C3=NNC(=O)CC3)ccc21` showed a melting point of 261 to 264 °C.
In the case of `CCn1c(N(C)C)nc2cc(C(F)(F)F)c(Cl)c(N)c21`, the melting point lay within 99 to 100 °C.
With `Clc1c(CBr)ccc2c(Cl)c(CBr)ccc12` the figure was 219 to 221 °C; with `C=C(c1ccccc1OCCCCl)c1cccc2[nH]ccc12`, 70 to 72 °C.
For the molecule `COc1ccc(S(=O)(=O)Nc2ccc(Cl)c(OCCN(C)C)c2)cc1OC`, the melting point lay within 103 to 106 °C.
As for `COc1ccc2[nH]c3c(c2c1)C[C@@]1(C)C(=O)N(CCCN(C)C)C(=O)N1[C@@H]3c1cccc(O)c1` (racemic), the melting point was in the range of 228 to 231 °C.
As to `O=C(CNC(=O)c1ccc(F)cc1)c1ccsc1`, the melting point lay within 140 to 141 °C.
`COc1c(F)c(F)c(C(=O)c2ccc(Br)cc2)c(F)c1F` had a melting point of 80 to 82 °C.
For `CC(=O)Oc1ccc(C#Cc2ccccc2)cc1`, the melting point was in the range of 104 to 106 °C.
With `Cc1cccc(C)c1-n1cc(C#N)c(=O)n(C)c1=O`, the melting point lay within 198 to 200 °C.
Regarding `CCCc1c(OCCCOc2cc(NC(=O)C(=O)O)c(C(F)(F)F)cc2Cl)ccc(C(C)=O)c1O`, the melting point lay within 173 to 174 °C.
With `COc1cc(OC)cc(-n2c(-c3ccccc3)cc(=O)c(C)c2-c2ccccc2)c1` the figure was 232 to 236 °C.
With `O=C1NC(=O)C(Sc2ccc(Cl)cc2)S1` (stereo not drawn) the figure was 109 to 110 °C.
With `Cc1ccc(S(=O)(=O)NC(C)(C)CO)cc1NC(=O)c1cnn2c(C(F)(F)F)cc(-c3ccc(C(F)(F)F)cc3)nc12` the figure was 240 °C.
`CCCCc1c(C(=O)OCC)cc(Oc2nnnn2-c2ccccc2)c2c(OC)cccc12` returned a melting point of 144 to 146 °C.
With `O=C1OC(c2ccccc2)C(c2ccccc2)=C1C(=O)N1CCOCC1` (stereo not drawn), the melting point fell in the range of 204 to 206 °C.
Molecule `CC(=O)OC1CC2=CCC3C4CCC(C(C)CI)C4(C)CCC3C2(C)C(OC(C)=O)C1` (stereo not drawn) returned a melting point of 135 to 136 °C.
Molecule `COC1C(CO)OC(n2c3ccc(CO)cc3c3c4c(c5c6cc(CO)ccc6[nH]c5c32)C(=O)NC4=O)C(O)C1O` (stereo not drawn) came in with a melting point of more than 300 °C.
`CC(C)C(NC(=O)Nc1ccc(C(=O)NCC(=O)OCc2ccccc2)cc1)C(=O)N1CCCC1C(=O)NC(C(=O)C(F)(F)F)C(C)C` (mixture of isomers) gave a melting point of 65 to 70 °C.
`c1cc(NCC2CCCO2)c2cc3c(cc2n1)OCO3` (stereo not drawn): the melting point is 276 to 278 °C.
The molecule `CC(C)C1Cc2cc(OCC(=O)O)cc(Cl)c2C1=O` (stereo not drawn) came in with a melting point of 126 to 128 °C.
As for `O=C1CC2(C(=O)N1)C(=O)N(Cc1ccc(Cl)c(Cl)c1)c1ccc(F)cc12` (stereo not drawn), the melting point lay within 253 to 254 °C.
For `CCC1(CC)c2ccccc2C(CC)(CC)N1OC(COC(C)(C)C)c1ccccc1` (stereo not drawn), the melting point was in the range of 85 to 86 °C.
Consider `CNCC(O)COc1ccccc1` (stereo not drawn), for which the melting point lay within 74 to 77 °C.
Regarding `CCOC(OCC)c1cc(NC(c2ccccc2)(c2ccccc2)c2ccccc2)c(F)c(C2CCC2)n1`, the melting point was in the range of 121 to 122 °C.
As to `CSc1nc(-n2cnc([N+](=O)[O-])n2)c2cc(Br)ccc2n1`, the melting point was found to be 204 °C.
With `O=C1C(Nc2ccccc2)=CC(=O)c2ncccc21`, the melting point was in the range of 182 to 184 °C.
In the case of `CCCCCCCCOC(=O)c1ccc(C(=O)O)cc1`, the melting point turned out to be 113 °C.
Consider `COc1cc(Nc2nccc(Nc3ccc(N4CCOCC4)cc3)n2)cc(OC)c1OC`, for which the melting point was found to be 214 °C.
With `O=C1Nc2ccc(C(F)(F)F)cc2C1c1ncnc2nn(C3CCCC3)cc12` (stereo not drawn) the figure was 292 to 293 °C.
Consider `COc1cc(C(C)C)c(OCC#N)cc1I`, for which the melting point lay within 67.5 to 68.8 °C.
To `Cc1cc(O)n2nc(S(=O)(=O)O)nc2n1` belongs more than 300 °C.
Molecule `CN(C)C=C(C(=O)c1cccc2c1OC(F)(F)O2)C(=O)C1CC1` showed a melting point of 118 to 119 °C.
As for `CCOC(=O)C1CCc2[nH]c3ccc(OC(F)(F)F)cc3c2C1` (stereo not drawn), the melting point fell in the range of 131 to 132 °C.
In turn, `COC(=O)c1ccc2ncc(C(=O)c3ccc(N4C[C@H](CNC(C)=O)OC4=O)cc3)n2c1` returned a melting point of 231 to 233 °C.
As for `CC(C)N1C(=O)c2ccccc2C1CC(C)(C)O` (stereo not drawn), the melting point fell in the range of 82 to 84 °C.
Consider `CCCCN1CCC[C@H]1CNC(=O)c1cc(Cl)cc2c1OC(C)(C)CN2C`, for which the melting point was 110 to 112 °C.
With `COc1cc(C(=O)O)ccc1Cn1cnc2ccc(NC(=O)OC3CCCC3)cc21` the figure was 241 to 242 °C; with `COc1ccccc1-n1c(=O)[nH]c2c(C(N)=O)nc(N[C@H]3CC[C@H](OC(N)=O)CC3)nc21`, 157 to 160 °C; with `COc1ccc(-n2cncc2-c2ccccc2)cc1`, 106 °C.
In the case of `CCCCNCc1cccc(OCCCNc2nc(N)nn2C)c1`, the melting point fell in the range of 99.5 to 101 °C.
For the molecule `CCN1CSCN(CC)C1=S`, the melting point lay in the range of 94 to 97 °C.
`OCCc1ccc(Nc2ncc3c(n2)-c2ccccc2C(c2cccc(Br)c2)C3)cc1` (stereo not drawn) returned a melting point of 88 to 90 °C.
As for `Cc1oc(-c2ccccc2)nc1CCOc1ccc(C[C@@H](C(=O)O)N2CCN(S(=O)(=O)c3ccccc3)CC2)cc1`, the melting point lay in the range of 180 to 182 °C.
Molecule `CC(O)(CCN1CCOCC1)c1ccc(-c2ccc(Br)cc2)cc1` (stereo not drawn) registered a melting point of 97 to 99 °C.
As to `O=C1CCC(c2ccccc2)(c2ccccc2)[C@@H]2CN(C(=O)CC3=CSCSC3)C[C@H]12` (racemic), the melting point turned out to be 211 °C.
In the case of `CCOC(Cc1ccc(OCc2nc(C3CC3)oc2C)c2ccsc12)C(=O)O` (stereo not drawn), the melting point lay in the range of 153 to 154 °C.
`CCCCCCCCCCCCCCCCCCNC(=O)OCC1(CNS(=O)(=O)CCCI)CCCO1` (stereo not drawn) returned a melting point of 66.5 to 67.5 °C.
`CSc1cccc(CNC(=O)c2nc3scc(COCc4ccc(C(=O)O)cc4)c3c(=O)[nH]2)c1`: the melting point lay in the range of 252 to 254 °C.
With `COc1ccc(C2=NN(c3ccc(C4=NNC(=O)CC4C)cc3)C(=O)C3CCCCC23)cc1OC1CCCC1` (stereo not drawn), the melting point was in the range of 134 to 141 °C.
The molecule `CCCCCCCCCCOc1ccc(Cc2cccc(C(=O)O)c2)cc1CCC(=O)O` gave a melting point of 146 to 148 °C.
`COc1ccc(C2CCN(C)CC2)cc1Nc1ncc2ccc(-c3ccccc3N(C)S(C)(=O)=O)n2n1` registered a melting point of 93 to 99 °C.
With `CCCCCCOC(=O)C(O)C1OC(n2cnc3c(N)ncnc32)C(O)C1O` (stereo not drawn) the figure was 145 to 147 °C; with `C=CCNc1c(CO)cnc2cn(C(C)(C)OC)nc12`, 152 to 154 °C; with `COc1ccc(C2C(=O)c3ccc(OC)cc3C2=O)cc1` (stereo not drawn), 163 °C.
With `COC(=O)c1nc(-c2ccc(Cl)cc2)c(F)c(N)c1I`, the melting point lay within 114 to 115 °C.
The molecule `COC(=O)C(Cl)(C(=O)OC)[C@@H](C[N+](=O)[O-])c1ccccc1` came in with a melting point of 175 to 177 °C.
As to `Cc1cc(-c2ccc(C(F)(F)F)cc2)nc(-n2cnc(-c3ccc(S(N)(=O)=O)cc3)c2)n1`, the melting point turned out to be 323 °C.
Molecule `CN1CCN(C(=O)c2cc(S(=O)(=O)NC3CCCCC3)ccc2N)CC1` returned a melting point of 167 to 168 °C.
The molecule `CCCCCCCCCCc1ccc(NC(=O)c2cccc(-c3ccccc3)c2O)cc1` yielded a melting point of 74 to 75 °C.

As a reminder, the melting point is the temperature of the solid-liquid transition.
